This is an account of results in patent publication US6762171B1, “Fatty acid CoA thioester inhibitory substance of PPARα and PPARγ” (Kyorin Pharmaceutical Co, Ltd., priority 2002, dated 2004).

Assay [1] deals with T1, human-type PPAR α ligand-binding domain (Homo sapiens, UniProt Q07869).
T1 construct: made in house; host or cells: Escherichia coli
T1 sequence (Q07869 239-466 limits assumed): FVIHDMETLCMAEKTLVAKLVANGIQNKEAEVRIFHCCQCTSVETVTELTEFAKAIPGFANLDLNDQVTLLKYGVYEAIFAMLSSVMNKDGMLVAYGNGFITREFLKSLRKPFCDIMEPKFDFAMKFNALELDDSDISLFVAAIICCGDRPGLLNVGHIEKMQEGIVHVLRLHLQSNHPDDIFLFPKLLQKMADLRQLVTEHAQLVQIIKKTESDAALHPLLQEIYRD
Briefly: Competition binding with [3H]KRP-297 to 6×His-hPPARα ligand-binding domain. The settings on record: for Binding to the ligand-binding domain of PPARα: competition with 100 nM [3H]KRP-297, test concentration not given; for Binding to PPAR α ligand-binding domain, in words: competition with [3H]KRP-297. An excerpt:
(§1) Proteins (6×His-hPPARs LBD) tagged 6-copy histidine to the side of N-termini in the ligand-binding domains of human-type PPAR α and PPAR γ were expressed in Escherichia coli, respectively, and purified through a nickel column.

The target of assay [2] is T2, human-type PPAR γ ligand-binding domain (Homo sapiens, UniProt P37231).
T2 construct: made in house; host or cells: Escherichia coli
T2 sequence (P37231 238-503 limits assumed): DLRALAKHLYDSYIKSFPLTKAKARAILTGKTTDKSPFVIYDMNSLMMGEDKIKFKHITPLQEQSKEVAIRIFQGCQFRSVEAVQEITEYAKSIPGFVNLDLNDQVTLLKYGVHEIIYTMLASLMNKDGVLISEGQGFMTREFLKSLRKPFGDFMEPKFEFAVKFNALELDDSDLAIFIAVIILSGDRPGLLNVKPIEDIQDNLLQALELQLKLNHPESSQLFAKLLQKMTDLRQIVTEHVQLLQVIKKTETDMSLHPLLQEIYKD
Put plainly: Competition binding with [3H]KRP-297 to 6×His-hPPARγ ligand-binding domain. The settings on record: for Binding to the ligand-binding domain of PPARγ: competition with 100 nM [3H]KRP-297, test concentration not given; for Binding to PPAR γ ligand-binding domain, in words: competition with [3H]KRP-297.
Text: as §1

Assay [3] has as its target T3, Human PPARγ ligand-binding domain and SRC-1 (Homo sapiens, UniProt P37231).
T3 construct: made in house; host or cells: Escherichia coli (PPAR LBD); in vitro translation, TNT, Promega (SRC-1)
T3 sequence (P37231 238-503 limits assumed): T2 sequence (P37231 238-503 limits assumed)
Put plainly: Conjugate formation between PPARγ LBD and [35S]SRC-1. The class given is biochemical. How it is done:
(§2) [35S]methionine-labeled form of SRC-1 containing 2-copy of LXXLL motif was prepared in vitro (TNTR, Promega Co., Madison, Wis.). 6×His-hPPARs LBD protein was incubated for 60 minutes at 4° C. in 50 mM Tris-HCl buffer (pH 7.4) containing 50 mM KCl and 1 mM dithiothreitol and 0.1% bovine serum albumin in the presence or absence of testing compound. Thereafter, […] of anti-6×His antibody (QIAGEN Co., Germany) were added and the mixture was incubated for 60 minutes at 4° C. Successively, […] of protein G Sepharose (Falmasia Biotech Co., Sweden) were added and the mixture was incubated for 60 minutes at 4° C. After washed thrice by centrifugation, protein G Sepharose was dissolved with […] of SDS-sample buffer, 20% SDS-PAGE, and then [35S]SRC-1 was detected by means of autography.

In assay [4] the target is T4, Human PPARα ligand-binding domain and SRC-1 (Homo sapiens, UniProt Q07869).
T4 construct: made in house; host or cells: Escherichia coli (PPAR LBD); in vitro translation, TNT, Promega (SRC-1)
T4 sequence (Q07869 239-466 limits assumed): T1 sequence (Q07869 239-466 limits assumed)
Briefly: Conjugate formation between PPARα LBD and [35S]SRC-1. The assay is classed as biochemical. The procedure:
as §2

The structures appear in SMILES notation.

For the compound `CCCCC/C=C\C/C=C\C=C\[C@@H](O)C/C=C\CCCC(=O)O` [8(S)-Hydroxyeicosatetraenoic acid, 8(S)-hydroxyeicosatetraenoic acid, reference compound], the “Binding to the ligand-binding domain of PPARα” value (“Binding … of PPARα” below) in assay [1] was 99%.

`CCCCC/C=C/C=C1/C(=O)C=C[C@@H]1C/C=C\CCCC(=O)O` [15-Deoxy-Δ^12,14-prostaglandin J2, 15-deoxy-Δ^12,14-prostaglandin J2, reference compound]: the “Binding to the ligand-binding domain of PPARγ” value (“Binding … of PPARγ” below) in assay [2] was 93%.

Turning to `CCCCC/C=C\C/C=C\C/C=C\C/C=C\CCCC(=O)SCCNC(=O)CCNC(=O)[C@H](O)C(C)(C)COP(=O)(O)OP(=O)(O)OC[C@H]1O[C@@H](n2cnc3c(N)ncnc32)[C@H](O)[C@@H]1OP(=O)(O)O` [Arachidonoyl CoA], in assay [2], the “Binding … of PPARγ” value is recorded as 46% and the “Binding to PPAR γ ligand-binding domain, in words” value is listed as “ligand”. Besides, in assay [1], the “Binding … of PPARα” value was determined as 54% and the “Binding to PPAR α ligand-binding domain, in words” value is reported as “ligand”.

`CCCCC/C=C\C/C=C\CCCCCCCC(=O)SCCNC(=O)CCNC(=O)[C@H](O)C(C)(C)COP(=O)(O)OP(=O)(O)OC[C@H]1O[C@@H](n2cnc3c(N)ncnc32)[C@H](O)[C@@H]1OP(=O)(O)O` [Linoleoyl CoA]: the “Conjugate formation between PPARγ LBD and SRC-1” value in assay [3] (BRL-49653 30 μM, Linoleoyl CoA 3 μM (0 μM: 4.8 ± 0.7)) stood at 4.9 ± 0.6; in assay [3] (BRL-49653 30 μM, Linoleoyl CoA 10 μM (0 μM: 4.8 ± 0.7)) it was 4.8 ± 1.9; in assay [3] (BRL-49653 30 μM, Linoleoyl CoA 30 μM (0 μM: 4.8 ± 0.7)), 1.5 ± 0.5; in assay [3] (BRL-49653 30 μM, Linoleoyl CoA 100 μM (0 μM: 4.8 ± 0.7)), 1.0 ± 0.1; in assay [3] (linoleic acid 30 μM, Linoleoyl CoA 3 μM (0 μM: 4.5 ± 0.7)), 4.2 ± 0.3; in assay [3] (linoleic acid 30 μM, Linoleoyl CoA 10 μM (0 μM: 4.5 ± 0.7)), 2.7 ± 1.1. Besides, the “Conjugate formation between PPARγ LBD and SRC-1” value is on record as 1.9 ± 0.8 in assay [3] (linoleic acid 30 μM, Linoleoyl CoA 30 μM (0 μM: 4.5 ± 0.7)) and 1.3 ± 0.4 in assay [3] (linoleic acid 30 μM, Linoleoyl CoA 100 μM (0 μM: 4.5 ± 0.7)). Besides, the “Inhibition of conjugate formation of SRC-1 with PPAR γ, in words” value in assay [3] (conjugate formation due to ligands BRL-49,653 and linoleic acid) is listed as “dose-dependently inhibited”. Moreover, the “Binding … of PPARγ” value in assay [2] is listed as 59%. Besides, the “Binding to PPAR γ ligand-binding domain, in words” value in assay [2] is listed as “ligand”. Further, the “Conjugate formation between PPARα LBD and SRC-1” value in assay [4] (KRP-297 30 μM, Linoleoyl CoA 3 μM (0 μM: 6.1 ± 1.7)) was found to be 5.5 ± 1.5; in assay [4] (KRP-297 30 μM, Linoleoyl CoA 10 μM (0 μM: 6.1 ± 1.7)), 4.4 ± 0.8; in assay [4] (KRP-297 30 μM, Linoleoyl CoA 30 μM (0 μM: 6.1 ± 1.7)) it was 1.4 ± 0.1; in assay [4] (KRP-297 30 μM, Linoleoyl CoA 100 μM (0 μM: 6.1 ± 1.7)) it was 0.9 ± 0.3; in assay [4] (linoleic acid 30 μM, Linoleoyl CoA 3 μM (0 μM: 5.3 ± 1.9)), 6.1 ± 2.2; in assay [4] (linoleic acid 30 μM, Linoleoyl CoA 10 μM (0 μM: 5.3 ± 1.9)) it was 2.4 ± 0.8. In addition, the “Conjugate formation between PPARα LBD and SRC-1” value was found to be 1.2 ± 0.4 in assay [4] (linoleic acid 30 μM, Linoleoyl CoA 30 μM (0 μM: 5.3 ± 1.9)) and 0.9 ± 0.3 in assay [4] (linoleic acid 30 μM, Linoleoyl CoA 100 μM (0 μM: 5.3 ± 1.9)). Besides, the “Inhibition of conjugate formation of SRC-1 with PPAR α, in words” value in assay [4] (conjugate formation due to ligands KRP-297 and linoleic acid) is on record as “dose-dependently inhibited”. The “Binding … of PPARα” value in assay [1] turned out to be 92%. Besides, the “Binding to PPAR α ligand-binding domain, in words” value in assay [1] is listed as “ligand”.

In the case of `CCCCCCCCCCCCCC(=O)SCCNC(=O)CCNC(=O)[C@H](O)C(C)(C)COP(=O)(O)OP(=O)(O)OC[C@H]1O[C@@H](n2cnc3c(N)ncnc32)[C@H](O)[C@@H]1OP(=O)(O)O` [Myristoyl CoA], in assay [2], the “Binding … of PPARγ” value came to 45% and the “Binding to PPAR γ ligand-binding domain, in words” value was “ligand”. For the same compound, in assay [1], the “Binding … of PPARα” value is recorded as 70% and the “Binding to PPAR α ligand-binding domain, in words” value is listed as “ligand”.

As to `CCCCCCCC/C=C\CCCCCCCC(=O)SCCNC(=O)CCNC(=O)[C@H](O)C(C)(C)COP(=O)(O)OP(=O)(O)OC[C@H]1O[C@@H](n2cnc3c(N)ncnc32)[C@H](O)[C@@H]1OP(=O)(O)O` [Oleoyl CoA], in assay [2], the “Binding … of PPARγ” value was 52% and the “Binding to PPAR γ ligand-binding domain, in words” value is “ligand”. Besides, in assay [1], the “Binding … of PPARα” value came out at 95% and the “Binding to PPAR α ligand-binding domain, in words” value was “ligand”.

`CCCCCCCCCCCCCCCC(=O)SCCNC(=O)CCNC(=O)[C@H](O)C(C)(C)COP(=O)(O)OP(=O)(O)OC[C@H]1O[C@@H](n2cnc3c(N)ncnc32)[C@H](O)[C@@H]1OP(=O)(O)O` [Palmitoyl CoA]: in assay [2], the “Binding … of PPARγ” value is 72% and the “Binding to PPAR γ ligand-binding domain, in words” value is listed as “ligand”. For the same compound, in assay [1], the “Binding … of PPARα” value came out at 83% and the “Binding to PPAR α ligand-binding domain, in words” value was “ligand”.

For `CCCCCCCCCCCCCCCCCC(=O)SCCNC(=O)CCNC(=O)[C@H](O)C(C)(C)COP(=O)(O)OP(=O)(O)OC[C@H]1O[C@@H](n2cnc3c(N)ncnc32)[C@H](O)[C@@H]1OP(=O)(O)O` [Stearoyl CoA], in assay [2], the “Binding … of PPARγ” value stood at 89% and the “Binding to PPAR γ ligand-binding domain, in words” value is “ligand”. In addition, in assay [1], the “Binding … of PPARα” value is recorded as 94% and the “Binding to PPAR α ligand-binding domain, in words” value was “ligand”.
